Laboratory results from patent US11421280B2 (DENOVO BIOPHARMA LLC, priority 2016, dated 2022).
Entries after “also recorded” stand apart in the source; their conditions may differ.

Assays:
[1] = tested on: human cancer xenografts (colorectal carcinomas, glioblastomas, diffuse large B-Cell lymphomas, Waldenstrom's macroglobulinemia, multiple myeloma); details: single-agent treatment; cited from earlier work
DLBCL patients [2] = assay: S028 phase 2 DLBCL 1st line trial, enzastaurin in combination with R-CHOP; assay type: in vivo, human
Description: Thus, subgroup analysis was conducted using both IPI and rs309605 and rs309604.

GBM patients = assay: S008 GBM phase 1/2 first line trial; assay type: in vivo, human
Source text: FIG. 4A is a Kaplan-Meier plot showing time to overall survival in the AA+AB group and BB group. FIG. 4B is a Kaplan-Meier plot showing time to overall survival in the chromaturia group and non-chromaturia group.
The DNA samples from blood of GBM patients in S008 trials were used to genotype rs309605 by Taqman assay.

[3] = tested on: cultured cancer cells (colon, NSCLC, glioblastoma, diffuse large B-cell and cutaneous T-cell lymphoma, multiple myeloma, Waldenstrom's macroglobulinemia); details: cited from earlier work
DLBCL patients [4] = assay: Prelude phase 3 DLBCL maintenance trial, survival analysis by chromaturia and rs309605 genotype; assay type: in vivo, human
Source text: Prelude trial is a multicenter, phase 3, randomized, double-blind, placebo-controlled trial enrolled patients at high risk of recurrence following rituximab-cyclophosphamide, doxorubicin, vincristine, and prednisone (R-CHOP). […] Primary endpoint was DFS 3 years after the last patient entered treatment (FIG. 1A).
Unlike most oncology biomarker studies focusing on mutations or target protein overexpression in tumor cells, germline genetic polymorphisms also contribute to the various responses to the same drug in different patients.
For both rs309605 and rs309604, allele A represents T and allele B represents C. […] A p-value smaller than 5×10^−8 is usually considered the threshold for genome-wide significance.
To examine whether rs309605 is merely a prognostic biomarker, DNA samples from 238 patients from placebo control group were genotyped at rs309605 using the Taqman SNP assays.

[5] = tested on: VEGF induced angiogenesis; details: oral dosing, plasma exposure similar to human clinical trials; cited from earlier work
[6] = tested on: other PKC isoforms (α, γ, ε); details: Graff et al. 2005; read-out: IC50s other PKC isoforms (α, γ, ε); cited from earlier work
[7] = enzastaurin arm, rs309605/rs309604
[8] = enzastaurin arm, rs309605/rs309604, p-value 5.75×10^−9

Cn1cc(C2=C(c3cn(C4CCN(Cc5ccccn5)CC4)c4ccccc34)C(=O)NC2=O)c2ccccc21 [enzastaurin, 3-(1-methyl-1H-indol-3-yl)-4-[1-[1-(pyridin-2-ylmethyl)piperidin-4-yl]-1H-indol-3-yl]-1H-pyrrole-2,5-dione]
growth of human cancer xenografts [1]: suppresses growth of multiple human cancer xenografts | survival, AA+AB vs BB genotype at rs309605 (DLBCL patients [2]; enzastaurin treatment arm, with R-CHOP): significant better survival | overall survival, enzastaurin arm vs control arm (DLBCL patients [2]; general patient population, with R-CHOP): no significant difference | Progression Free (PFS) survival and overall survival, enzastaurin arm (DLBCL patients [2]; patients AA+AB at rs309605 and rs309604 and IPI>2): superior efficacy | overall survival, AA or AB genotype vs BB genotype at rs309605 (GBM patients): better overall survival | survival, chromaturia vs without chromaturia (GBM patients): significant improved survival | intracellular signaling through the PKC and PI3K/AKT pathways ([3]; clinically relevant concentrations, suppresses phosphorylation of AKT, mTOR, p70S6K, S6, 4EBP1, CREB, GSK3β): blocks intracellular signaling through the PKC and PI3K/AKT pathways | tumor cell apoptosis ([3]; cultured cancer cells): induces tumor cell apoptosis | tumor cell proliferation ([3]; cultured cancer cells): inhibits tumor cell proliferation | overall survival, AA+AB vs BB genotype in patients without chromaturia (DLBCL patients [4]; 177 enzastaurin treated patients without chromaturia): no significant difference in overall survival | Event per 1000 person-month (DLBCL patients [4]; AA + AB (rs309605), Chrom): 0.65 per 1000 person-month | Number of events (OS) (DLBCL patients [4]; AA + AB (rs309605), Chrom, N 82): 3 | Event per 1000 person-month (DLBCL patients [4]; AA + AB (rs309605), Non-Chrom): 3.69 per 1000 person-month | Number of events (OS) (DLBCL patients [4]; AA + AB (rs309605), Non-Chrom, N 158): 27 | Event per 1000 person-month (DLBCL patients [4]; All types (AA, AB, BB), Chrom): 1.96 per 1000 person-month | Number of events (OS) (DLBCL patients [4]; All types (AA, AB, BB), Chrom, N 95): 10 | Event per 1000 person-month (DLBCL patients [4]; All types (AA, AB, BB), Non-Chrom): 4.83 per 1000 person-month | Number of events (OS) (DLBCL patients [4]; All types (AA, AB, BB), Non-Chrom, N 187): 41 | number of patients who survived, AA+AB genotype (DLBCL patients [4]; [7]): 209 | number of patients who survived, BB genotype (DLBCL patients [4]; [7]): 22 | number of patients who had events, AA+AB genotype (DLBCL patients [4]; [8]): 31 | number of patients who had events, BB genotype (DLBCL patients [4]; [8]): 22 | overall survival, AA+AB genotype vs BB genotype (DLBCL patients [4]; enzastaurin treated arm, rs309605 and rs309604): significantly improved survival; also recorded: significant longer overall survival | overall survival, AA+AB genotype at rs309605 with chromaturia (DLBCL patients [4]; interaction of genotype and chromaturia, p value=0.017): best overall survival | overall survival / efficacy, enzastaurin arm vs placebo arm (DLBCL patients [4]; overall patient population, N=504 vs N=254, 500 mg daily oral): failed to demonstrate statistically significant efficacy; also recorded: no significant difference | VEGF induced angiogenesis [5]: suppresses VEGF induced angiogenesis | IC50 [6]: 40 to 100 nM
